This note sets out measurements from US20260256923A1, “NEW RECRUITMENT ELEMENT OF UBIQUITIN LIGASE AND USE THEREOF” (SHENZHEN LINGGENE BIOTECH CO., LTD., priority 2023, published 2026).

One series concerns the target T1, MDM2 (Homo sapiens, UniProt P19338+Q00987).
T1 construct: endogenous in cells; host or cells: A549
Put plainly: MDM2 protein degradation in A549 non-small cell lung cancer cells, western blot. It counts as cell-based. As for the experimental part: (1) A549 non-small cell lung cancer cells were incubated with 200 nM AS1411-VH032, and corresponding cell samples were collected at time gradients of 0 h, 3 h, 6 h, 9 h, 12 h, and 24 h for protein extraction and subsequent western blot assay to detect protein degradation.
(2) A549 non-small cell lung cancer cells were incubated with AS1411-VH032 at concentrations of 0 nM, 50 nM, 100 nM, 150 nM, 200 nM, and 250 nM. After 3 h, cell samples were collected for protein extraction and subsequent western blot assay to detect protein degradation.
(3) A549 non-small cell lung cancer cells were incubated with 200 nM AS1411, VH032, AS1411-VH032, or AS1411+VH032. After 3 h, cell samples were collected for protein extraction and subsequent western blot assay to detect protein degradation.
(4) A549 non-small cell lung cancer cells were incubated with 200 nM AS1411-VH032 for 3 h, and proteasome inhibitor MG132 was added. Cell samples were collected for protein extraction and subsequent western blot assay.
(5) A549 non-small cell lung cancer cells were transfected with si-NC or si-NCL and subsequently incubated with 200 nM AS1411-VH032 for 3 h. Cell samples were collected for protein extraction and subsequent western blot assay.
(1) A549 non-small cell lung cancer cells were incubated with 1000 nM AS1411-AS1411, and corresponding cell samples were collected at time gradients of 0 h, 3 h, 6 h, 9 h, 12 h, and 24 h for protein extraction and subsequent western blot assay to detect protein degradation.
(2) A549 non-small cell lung cancer cells were incubated with AS1411-AS1411 at concentrations of 0 nM, 50 nM, 100 nM, 250 nM, 500 nM, and 1000 nM. After 12 h, cell samples were collected for protein extraction and subsequent western blot assay to detect protein degradation.
(3) A549 non-small cell lung cancer cells were incubated with 1000 nM AS1411, AS1411-AS1411, or AS1411+AS1411. After 12 h, cell samples were collected for protein extraction and subsequent western blot assay to detect protein degradation. […]
A general note: In western blotting, separated proteins are transferred to a membrane and probed.

The next series addresses STAT3 (Homo sapiens, UniProt P40763). Put plainly: STAT3 protein degradation in HOS osteosarcoma cells, western blot. It counts as cell-based. On the set-up: endogenous in cells. As to conditions: 500 nM, 6 h. As for the experimental part:
HOS osteosarcoma cells were incubated with 500 nM double-stranded transcription factor decoy oligonucleotide S3, AS1411, the first PROTAC product 1411-S3-1, the second PROTAC product 1411-S3-2, or AS1411+double-stranded transcription factor decoy oligonucleotide S3. After 6 h, cell samples were collected for protein extraction and subsequent western blot assay.

Series [1] can be described thus: G4 structural characteristics, N-methyl mesoporphyrin IX (NMM) fluorescent probe. The class given is physicochemical. As to conditions: 1 μM NMM. As for the experimental part:
Both AS1411 and iSN04 are oligonucleotides specifically binding to NCL. The sequence of AS1411 is SEQ ID NO: 1, and the sequence of iSN04 is SEQ ID NO: 14. AS1411 contains a plurality of GGT motifs, and iSN04 contains one GGT motif. Whether AS1411 and iSN04 have stable G4 structural characteristics was determined. The experimental process was as follows: 5 μM NC (negative control, SEQ ID NO: 15), AS1411, or iSN04 was added to water, and the total volume was 100 μL. The mixture was heated at 95° C. for 7 min and then immediately incubated on ice for 3 min, followed by the addition of 2 μL of N-methyl mesoporphyrin IX (NMM) (purchased from MCE, Cat. No.: HY-133821) to make a final concentration of 1 μM. The resulting mixture was incubated at room temperature for 1 h in the dark. The fluorescence intensity was detected by a microplate reader, with an emission wavelength of 550-700 nm and an excitation wavelength of […].
Guanine-rich DNA sequences can form more distinct G4 structural characteristics in the presence of metal ions (usually sodium and potassium ions). 5 μM NC (negative control, SEQ ID NO: 15), AS1411, or iSN04 was added to a 100 mM K^+ solution, and the total volume was 100 μL. The mixture was well mixed, heated at 95° C. for 7 min, and then immediately incubated on ice for 3 min, followed by the addition of 2 μL of N-methyl mesoporphyrin IX (NMM) (purchased from MCE, Cat. No.: HY-133821) to make a final concentration of 1 μM. The resulting mixture was incubated at room temperature for 1 h in the dark. The fluorescence intensity was detected by a microplate reader, with an emission wavelength of 550-700 nm and an excitation wavelength of […].

T1 sequence (Q00987 whole entry): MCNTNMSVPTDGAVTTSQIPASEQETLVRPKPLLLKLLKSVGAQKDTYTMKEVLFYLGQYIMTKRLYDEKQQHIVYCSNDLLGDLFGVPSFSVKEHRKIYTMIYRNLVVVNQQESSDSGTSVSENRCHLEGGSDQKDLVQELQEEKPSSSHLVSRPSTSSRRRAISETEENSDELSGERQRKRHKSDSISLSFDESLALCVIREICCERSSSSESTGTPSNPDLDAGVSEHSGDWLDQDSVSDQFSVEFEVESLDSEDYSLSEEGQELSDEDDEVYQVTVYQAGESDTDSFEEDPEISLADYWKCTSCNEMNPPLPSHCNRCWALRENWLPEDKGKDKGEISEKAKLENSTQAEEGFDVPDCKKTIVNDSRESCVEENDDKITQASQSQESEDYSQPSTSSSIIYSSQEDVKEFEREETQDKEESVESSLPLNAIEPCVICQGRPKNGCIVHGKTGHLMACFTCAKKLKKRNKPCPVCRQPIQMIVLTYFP
T1 sequence (P19338 2-710 limits assumed): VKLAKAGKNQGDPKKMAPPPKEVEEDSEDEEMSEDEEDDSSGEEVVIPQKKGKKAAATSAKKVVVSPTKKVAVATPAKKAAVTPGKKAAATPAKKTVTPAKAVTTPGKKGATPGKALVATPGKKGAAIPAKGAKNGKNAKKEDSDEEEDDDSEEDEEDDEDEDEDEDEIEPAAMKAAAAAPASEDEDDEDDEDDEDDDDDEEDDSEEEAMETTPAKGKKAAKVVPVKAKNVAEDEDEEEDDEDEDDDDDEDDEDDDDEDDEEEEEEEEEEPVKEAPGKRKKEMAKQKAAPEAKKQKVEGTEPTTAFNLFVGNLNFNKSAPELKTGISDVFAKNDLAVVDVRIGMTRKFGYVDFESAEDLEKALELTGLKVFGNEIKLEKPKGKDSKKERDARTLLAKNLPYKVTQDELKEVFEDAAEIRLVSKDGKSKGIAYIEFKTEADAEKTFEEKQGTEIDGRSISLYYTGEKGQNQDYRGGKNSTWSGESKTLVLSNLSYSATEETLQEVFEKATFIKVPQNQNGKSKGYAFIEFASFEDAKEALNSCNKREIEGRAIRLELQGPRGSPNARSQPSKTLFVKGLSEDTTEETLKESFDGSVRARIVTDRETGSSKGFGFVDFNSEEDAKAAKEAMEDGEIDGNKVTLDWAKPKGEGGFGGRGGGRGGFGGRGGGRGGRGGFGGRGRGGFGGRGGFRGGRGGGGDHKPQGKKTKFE
Chain of STAT3 (P40763 whole entry): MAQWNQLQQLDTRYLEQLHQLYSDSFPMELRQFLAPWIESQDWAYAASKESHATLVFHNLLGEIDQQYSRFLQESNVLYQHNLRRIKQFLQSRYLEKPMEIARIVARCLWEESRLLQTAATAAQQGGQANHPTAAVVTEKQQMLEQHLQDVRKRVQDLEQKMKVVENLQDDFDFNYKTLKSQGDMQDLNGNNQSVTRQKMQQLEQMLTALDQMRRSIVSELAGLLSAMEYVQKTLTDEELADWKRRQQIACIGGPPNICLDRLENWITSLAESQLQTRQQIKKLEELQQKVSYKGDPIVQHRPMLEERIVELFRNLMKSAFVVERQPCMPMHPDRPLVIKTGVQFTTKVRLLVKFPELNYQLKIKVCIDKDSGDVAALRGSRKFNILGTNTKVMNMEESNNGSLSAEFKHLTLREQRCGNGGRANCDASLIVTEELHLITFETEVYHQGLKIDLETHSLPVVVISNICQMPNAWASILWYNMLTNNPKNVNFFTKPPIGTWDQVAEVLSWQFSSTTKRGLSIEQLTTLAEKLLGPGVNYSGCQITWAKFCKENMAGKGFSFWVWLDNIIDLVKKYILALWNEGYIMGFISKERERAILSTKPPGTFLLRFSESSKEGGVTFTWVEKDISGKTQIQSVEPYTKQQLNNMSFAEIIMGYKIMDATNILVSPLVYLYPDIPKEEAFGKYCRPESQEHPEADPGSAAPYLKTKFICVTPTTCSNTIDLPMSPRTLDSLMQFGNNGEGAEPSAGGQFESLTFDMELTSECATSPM

For “AS1411: DNA aptamer, GRO binding NCL, SEQ ID NO: 1: 5′-GGTGGTGGTGGTTGTGGTGGTGGTGG-3′”, the “protein level of MDM2” value was “neither AS1411, VH032, nor AS1411+VH032 can reduce the protein level of MDM2” in the series with MDM2 (A549, 200 nM, 3 h) and “neither AS1411 nor AS1411+AS1411 can reduce the protein level of MDM2” with MDM2 (A549, 1000 nM, 12 h). In the series with STAT3, the “protein level of STAT3” value was “only the first PROTAC product 1411-S3-1 and the second PROTAC product 1411-S3-2 can reduce the protein level of transcription factor STAT3”. For the same substance, the “G4 structural characteristics (fluorescence signal intensity)” value in series [1] (5 μM in 100 mM K+ solution) was “over 10000”; in series [1] (5 μM in water (no K+)), “over 4000”.
